Key:
sugar beet = assay: Test B pre/postemergence sugar beet; type: in vivo, Beta vulgaris
In short: (§1)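 Response is a visual 0-to-10 score relative to untreated plants, where 0 means no effect and 10 means complete control, taken twelve to sixteen days after application. Treatments went onto soil at planting and onto foliage of 1- to 4-leaf plants, using a surfactant-containing non-phytotoxic solvent.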

purple nutsedge = assay: Test B pre/postemergence purple nutsedge; type: in vivo, Cyperus rotundus
In short: as §1

pigweed = assay: Test B pre/postemergence pigweed; type: in vivo, Amaranthus retroflexus
In short: as §1

rice = assay: Test B flood test rice; type: in vivo, Oryza sativa; conditions: for Rice plant response rating (0 to 10 scale, 0 is no effect, 10 is complete control): Rate 125 g/ha, under heading Pre-emergence; for Rice plant response rating (0 to 10 scale, 0 is no effect, 10 is complete control) / Plant response rating, Rice (0 to 10 scale, 0 is no effect, 10 is complete control): visual evaluation after twelve to sixteen days; for Plant response rating, Rice (0 to 10 scale, 0 is no effect, 10 is complete control): Rate 62 g/ha
In short: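 Read-out is a visual response score from 0 (no effect) to 10 (complete control), assigned by comparison with untreated controls. Treatment was applied at the 2-leaf stage, and plants stayed in the greenhouse for twelve to sixteen days before scoring.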

[1] = Postemergence, Rate 250 g/ha, scale 0 to 10
[2] = Postemergence, Rate 500 g/ha, scale of 0 to 10 where 0 is no effect and 10 is complete control
[3] = Postemergence, Rate 1000 g/ha, scale 0 to 10 (0 no effect, 10 complete control)
[4] = Preemergence, Rate 125 g/ha, scale of 0 to 10 where 0 is no effect and 10 is complete control
[5] = Preemergence, Rate 250 g/ha, scale 0 to 10, 0 is no effect, 10 is complete control
[6] = Preemergence, Rate 500 g/ha, scale 0 to 10, 0 is no effect, 10 is complete control
[7] = Rate 125 g/ha, Postemergence, scale 0 to 10, 0 is no effect, 10 is complete control
[8] = Rate 1000 g/ha, Preemergence, scale 0 to 10 (0 no effect, 10 complete control)
[9] = Rate 250 g/ha, Pre-emergence (flood test species), scale 0 to 10, 0 is no effect, 10 is complete control
[10] = Rate 500 g/ha, Pre-emergence, flood test species, scale 0 to 10 (0 no effect, 10 complete control)
[11] = Preemergence, Rate 62 g/ha, scale of 0 to 10 where 0 is no effect and 10 is complete control
[12] = Rate 62 g/ha, Postemergence, scale 0 to 10, 0 no effect, 10 complete control
[13] = flood test species, Pre-emergence
[14] = Postemergence, Rate 125 g/ha, scale 0 to 10, 0 is no effect, 10 is complete control
[15] = Postemergence, Rate 500 g/ha, scale 0 to 10, 0 is no effect, 10 is complete control
[16] = Preemergence, Rate 125 g/ha, scale 0 to 10, 0 is no effect, 10 is complete control

CCOP(=O)(OCC)C(C)n1c(=O)on(C(=O)N(c2ccccc2)C(C)C)c1=O (centres unmarked) [Compound 448]
Sugarbeets plant response rating (sugar beet; [1]): 0 | Sugarbeets plant response rating (sugar beet; [2]): 0 | Sugarbeets plant response rating (sugar beet; [3]): 0 | Plant response rating, Sugarbeets (sugar beet; [4]): 0 | Sugarbeets plant response rating (sugar beet; [5]): 0 | Sugarbeets plant response rating (sugar beet; [6]): 0 | Sugarbeets plant response rating (sugar beet; [7]): 0 | Plant response rating, Sugarbeets (sugar beet; [8]): 0 | Nutsedge plant response rating (purple nutsedge; [1]): 0 | Nutsedge plant response rating (purple nutsedge; [2]): 0 | Nutsedge plant response rating (purple nutsedge; [3]): 0 | Plant response rating, Nutsedge (purple nutsedge; [4]): 0 | Nutsedge plant response rating (purple nutsedge; [5]): 0 | Nutsedge plant response rating (purple nutsedge; [6]): 0 | Nutsedge plant response rating (purple nutsedge; [7]): 0 | Plant response rating, Nutsedge (purple nutsedge; [8]): 0 | Redroot pigweed plant response rating (pigweed; [1]): 0 | Redroot pigweed plant response rating (pigweed; [2]): 0 | Redroot pigweed plant response rating (pigweed; [3]): 0 | Plant response rating, Redroot pigweed (pigweed; [4]): 0 | Redroot pigweed plant response rating (pigweed; [5]): 0 | Redroot pigweed plant response rating (pigweed; [6]): 0 | Redroot pigweed plant response rating (pigweed; [7]): 0 | Plant response rating, Redroot pigweed (pigweed; [8]): 0 | Rice plant response rating (rice; Pre-emergence, Rate 1000 g/ha, scale 0 to 10 (0 no effect, 10 complete control)): 0 | Rice plant response rating (0 to 10 scale, 0 is no effect, 10 is complete control) (rice; flood test species): 0 | Rice plant response rating (rice; [9]): 0 | Rice plant response rating (rice; [10]): 0

C=CC(OC)n1c(=O)on(C(=O)N(c2ccc(F)cc2)C(C)C)c1=O (centres unmarked) [Compound 452]
Sugarbeets plant response rating (sugar beet; [1]): 0 | Plant response rating, Sugarbeets (sugar beet; [11]): 0 | Plant response rating, Sugarbeets (sugar beet; [4]): 0 | Sugarbeets plant response rating (sugar beet; [5]): 0 | Sugarbeets plant response rating (sugar beet; [6]): 0 | Sugarbeets plant response rating (sugar beet; [12]): 0 | Sugarbeets plant response rating (sugar beet; [7]): 0 | Nutsedge plant response rating (purple nutsedge; [1]): 0 | Plant response rating, Nutsedge (purple nutsedge; [11]): 0 | Plant response rating, Nutsedge (purple nutsedge; [4]): 0 | Nutsedge plant response rating (purple nutsedge; [5]): 0 | Nutsedge plant response rating (purple nutsedge; [6]): 0 | Nutsedge plant response rating (purple nutsedge; [12]): 0 | Nutsedge plant response rating (purple nutsedge; [7]): 0 | Redroot pigweed plant response rating (pigweed; [1]): 0 | Plant response rating, Redroot pigweed (pigweed; [11]): 0 | Plant response rating, Redroot pigweed (pigweed; [4]): 0 | Redroot pigweed plant response rating (pigweed; [5]): 0 | Redroot pigweed plant response rating (pigweed; [6]): 0 | Redroot pigweed plant response rating (pigweed; [12]): 0 | Redroot pigweed plant response rating (pigweed; [7]): 0 | Plant response rating, Rice (0 to 10 scale, 0 is no effect, 10 is complete control) (rice; [13]): 0 | Rice plant response rating (0 to 10 scale, 0 is no effect, 10 is complete control) (rice; flood test species): 0 | Rice plant response rating (rice; [9]): 0 | Rice plant response rating (rice; [10]): 0

CCC=CCn1c(=O)on(C(=O)N(c2ccccc2)C(C)C)c1=O [Compound 454]
Sugarbeets plant response rating (sugar beet; [1]): 0 | Plant response rating, Sugarbeets (sugar beet; [11]): 0 | Plant response rating, Sugarbeets (sugar beet; [4]): 0 | Sugarbeets plant response rating (sugar beet; [5]): 0 | Sugarbeets plant response rating (sugar beet; [6]): 0 | Sugarbeets plant response rating (sugar beet; [12]): 0 | Sugarbeets plant response rating (sugar beet; [7]): 0 | Nutsedge plant response rating (purple nutsedge; [1]): 0 | Plant response rating, Nutsedge (purple nutsedge; [11]): 0 | Nutsedge plant response rating (purple nutsedge; [5]): 0 | Nutsedge plant response rating (purple nutsedge; [6]): 0 | Nutsedge plant response rating (purple nutsedge; [12]): 0 | Nutsedge plant response rating (purple nutsedge; [7]): 0 | Redroot pigweed plant response rating (pigweed; [1]): 2 | Plant response rating, Redroot pigweed (pigweed; [11]): 0 | Plant response rating, Redroot pigweed (pigweed; [4]): 2 | Redroot pigweed plant response rating (pigweed; [5]): 9 | Redroot pigweed plant response rating (pigweed; [6]): 10 | Redroot pigweed plant response rating (pigweed; [12]): 0 | Redroot pigweed plant response rating (pigweed; [7]): 0 | Plant response rating, Rice (0 to 10 scale, 0 is no effect, 10 is complete control) (rice; [13]): 0 | Rice plant response rating (0 to 10 scale, 0 is no effect, 10 is complete control) (rice; flood test species): 0 | Rice plant response rating (rice; [9]): 0 | Rice plant response rating (rice; [10]): 0

CC[Si](C)(C)Cn1c(=O)on(C(=O)N(c2ccc(F)cc2)C(C)C)c1=O [Compound 459]
Sugarbeets plant response rating (sugar beet; [1]): 0 | Plant response rating, Sugarbeets (sugar beet; [11]): 0 | Plant response rating, Sugarbeets (sugar beet; [4]): 0 | Sugarbeets plant response rating (sugar beet; [5]): 0 | Sugarbeets plant response rating (sugar beet; [6]): 0 | Sugarbeets plant response rating (sugar beet; [12]): 0 | Sugarbeets plant response rating (sugar beet; [7]): 0 | Nutsedge plant response rating (purple nutsedge; [1]): 0 | Plant response rating, Nutsedge (purple nutsedge; [11]): 0 | Plant response rating, Nutsedge (purple nutsedge; [4]): 0 | Nutsedge plant response rating (purple nutsedge; [5]): 0 | Nutsedge plant response rating (purple nutsedge; [6]): 0 | Nutsedge plant response rating (purple nutsedge; [12]): 0 | Nutsedge plant response rating (purple nutsedge; [7]): 0 | Redroot pigweed plant response rating (pigweed; [1]): 0 | Plant response rating, Redroot pigweed (pigweed; [11]): 0 | Plant response rating, Redroot pigweed (pigweed; [4]): 0 | Redroot pigweed plant response rating (pigweed; [5]): 4 | Redroot pigweed plant response rating (pigweed; [6]): 7 | Redroot pigweed plant response rating (pigweed; [12]): 0 | Redroot pigweed plant response rating (pigweed; [7]): 0 | Plant response rating, Rice (0 to 10 scale, 0 is no effect, 10 is complete control) (rice; [13]): 0 | Rice plant response rating (0 to 10 scale, 0 is no effect, 10 is complete control) (rice; flood test species): 0 | Rice plant response rating (rice; [9]): 0 | Rice plant response rating (rice; [10]): 0

CC(C)N(C(=O)n1oc(=O)n(COCC[Si](C)(C)C)c1=O)c1ccc(Cl)cc1 [Compound 467]
Sugarbeets plant response rating (sugar beet; [1]): 4 | Plant response rating, Sugarbeets (sugar beet; [11]): 1 | Plant response rating, Sugarbeets (sugar beet; [4]): 1 | Sugarbeets plant response rating (sugar beet; [5]): 1 | Sugarbeets plant response rating (sugar beet; [6]): 2 | Sugarbeets plant response rating (sugar beet; [12]): 0 | Sugarbeets plant response rating (sugar beet; [7]): 2 | Nutsedge plant response rating (purple nutsedge; [1]): 0 | Plant response rating, Nutsedge (purple nutsedge; [4]): 0 | Nutsedge plant response rating (purple nutsedge; [5]): 0 | Nutsedge plant response rating (purple nutsedge; [6]): 0 | Nutsedge plant response rating (purple nutsedge; [12]): 0 | Redroot pigweed plant response rating (pigweed; [1]): 3 | Plant response rating, Redroot pigweed (pigweed; [11]): 7 | Plant response rating, Redroot pigweed (pigweed; [4]): 7 | Redroot pigweed plant response rating (pigweed; [5]): 7 | Redroot pigweed plant response rating (pigweed; [6]): 9 | Redroot pigweed plant response rating (pigweed; [7]): 0 | Plant response rating, Rice (0 to 10 scale, 0 is no effect, 10 is complete control) (rice; [13]): 0 | Rice plant response rating (0 to 10 scale, 0 is no effect, 10 is complete control) (rice; flood test species): 0 | Rice plant response rating (rice; [9]): 0 | Rice plant response rating (rice; [10]): 0

CC(C)C(=O)Cn1c(=O)on(C(=O)N(c2ccc(F)cc2F)C(C)C)c1=O [Compound 486]
Sugarbeets plant response rating (sugar beet; [14]): 0 | Plant response rating, Sugarbeets (sugar beet; [15]): 2 | Plant response rating, Sugarbeets (sugar beet; [11]): 0 | Sugarbeets plant response rating (sugar beet; [16]): 0 | Sugarbeets plant response rating (sugar beet; [5]): 4 | Sugarbeets plant response rating (sugar beet; [6]): 6 | Sugarbeets plant response rating (sugar beet; [12]): 0 | Nutsedge plant response rating (purple nutsedge; [14]): 0 | Plant response rating, Nutsedge (purple nutsedge; [15]): 0 | Plant response rating, Nutsedge (purple nutsedge; [11]): 0 | Nutsedge plant response rating (purple nutsedge; [16]): 0 | Nutsedge plant response rating (purple nutsedge; [5]): 0 | Nutsedge plant response rating (purple nutsedge; [6]): 0 | Nutsedge plant response rating (purple nutsedge; [12]): 0 | Redroot pigweed plant response rating (pigweed; [14]): 0 | Plant response rating, Redroot pigweed (pigweed; [15]): 2 | Plant response rating, Redroot pigweed (pigweed; [11]): 6 | Redroot pigweed plant response rating (pigweed; [16]): 8 | Redroot pigweed plant response rating (pigweed; [5]): 9 | Redroot pigweed plant response rating (pigweed; [6]): 9 | Redroot pigweed plant response rating (pigweed; [12]): 0 | Plant response rating, Rice (0 to 10 scale, 0 is no effect, 10 is complete control) (rice; [13]): 0 | Rice plant response rating (0 to 10 scale, 0 is no effect, 10 is complete control) (rice; flood test species): 0 | Rice plant response rating (rice; [9]): 0 | Rice plant response rating (rice; Rate 500 g/ha, Pre-emergence section of Table B, 0 to 10 scale (0 no effect, 10 complete control)): 0

Source: patent US6737383B1, “Herbicidal oxadiazolidines” (priority 1999, dated 2004)
